In patent publication US20240293500A1, “PEPTIDE HAVING ANTICANCER ACTIVITY, AND USE THEREOF” (Korea University Research and Business Foundation, priority 2021, published 2024):

Tests used:
lamin B1 protein = experiment: Lamin B1 cleavage by western blotting (apoptosis marker); format: cell-based; details: MDA-MB-231, 1 μM peptide, 24 hours, nuclear fraction western blotting (FIG. 8)
Protocol: Next, to confirm the relationship between the anticancer peptide and apoptosis, the degree of cleavage of lamin B1 protein was confirmed. Lamin B1 is originally a type of nuclear protein that is degraded by caspase in apoptosis and used as a biomarker of apoptosis. The MDA-MB-231 cells were cultured and treated with 1 μM of a peptide (No. 1 or 2). After 24 hours, the cells were washed with PBS twice, and lysed with lysis buffer containing NP-40. The nucleus and cytoplasm were separated by centrifugation, and western blotting was performed on each nuclear and cytoplasmic fraction. Here, to determine the degree of separation of the nucleus and cytoplasm, α-tubulin, which is a cytoplasmic marker, and lamin B1 were simultaneously analyzed.

[1] = test system: matrix metallopeptidase 9 (MMP-9); experiment: MMP-9 expression by RT-PCR; format: cell-based; details: MDA-MB-231, 1 μM peptide, 24 hours, vs control (FIG. 6)
Protocol: MDA-MB-231 cells were cultured and treated with 1 μM of a peptide (No. 1 or 2). After 24 hours, RNA was isolated from the cells and the expression level of matrix metallopeptidase 9 (MMP-9), which is a key cell migration factor, was confirmed through RT-PCR.

[2] = test system: MDA-MB-231 triple-negative breast cancer cell line; experiment: MTT assay, co-treatment of peptide with anticancer agent; format: cell-based; details: for cell proliferation on co-treatment with paclitaxel compared to paclitaxel alone: MDA-MB-231, 1 μM peptide + 5.4 nM paclitaxel (FIGS. 3 and 4)
Protocol: To confirm the cytotoxic and anti-proliferative effect of a peptide discovered in the present invention on cancer cells and normal cells, a 3-(4,5-diemthylthiazolyl-2)-2,5-diphenyltetrazolium bromide (MTT) assay was performed. The MTT assay is a method of measuring the growth of living cells and measuring cell viability using MTT reduction by mitochondrial reductase in living cells.
In addition, peptides and anticancer agents were administered together to the MDA-MB-231 triple-negative breast cancer cell line to explore effects associated with drug co-administration and drug resistance. Triple-negative (ER−/PR−/HER2−) breast cancer is a type of breast cancer that is difficult to treat because it is known to have drug resistance to existing hormone therapy and anticancer drugs, and is a suitable model for research on drug resistance and co-administration.
Cell viability was evaluated by an MTT assay by treating MDA-MB-231 cells with 1 μM of the peptide (No. 1 or 2), and 9 μM abemaciclib or 5.4 nM paclitaxel.

[3] = test system: MDA-MB-231 xenograft tumor; experiment: Xenograft tumor model, tumor size; format: in vivo, BALB/c nude mice; details: 2.5 mg/kg intraperitoneally daily, 6 weeks, vs PBS control (FIG. 9)
Protocol: A xenograft tumor model was constructed by injecting MDA-MB-231 cells into immunodeficient BALB/c nude mice and forming tumors for 1 week. Mice with tumors were randomly divided into a control and an experimental group. The control and the experimental group were intraperitoneally injected daily with PBS (the same volume as a peptide) and the No. 1 peptide (2.5 mg/kg), respectively, and then observed for a total of 6 weeks. During the experimental period, a tumor size was measured with a digital caliper every week, and the final tumor size was compared at week 6.

[4] = test system: extracellular signal-regulated kinase (ERK) protein; experiment: p-ERK level by Western blot; format: cell-based; details: MDA-MB-231, 1 μM peptide, 24 hours, vs control (FIG. 7)
Protocol: In addition, the change in phosphorylation of extracellular signal-regulated kinase (ERK) protein caused by an anticancer peptide was confirmed. ERK gene is an indicator of drug resistance and inhibition of the growth and apoptosis of cancer cells. The MDA-MB-231 cells were cultured and treated with 1 μM of a peptide (No. 1 or 2). After 24 hours, proteins were isolated from the cells, and a p-ERK level was confirmed by Western blot.

expression of MMP-9 [1] | Sequence | cleavage of lamin B1 protein (lamin B1 protein) | cell proliferation on co-treatment with paclitaxel compared to paclitaxel alone [2] | tumor growth (tumor size) [3] | p-ERK level [4] | cell proliferation on co-treatment with abemaciclib compared to abemaciclib alone ([2]; MDA-MB-231, 1 μM peptide + 9 μM abemaciclib (FIG. 4))
significantly reduced | EKAEEDRYFR (listed as Mus musculus) [No. 1] | cleaved | further inhibited | significant tumor growth inhibitory effect | significantly reduced | 
significantly reduced | EQAEEERYFR (listed as Homo sapiens) [No. 2] | cleaved | further inhibited |  | significantly reduced | further inhibited
